Experimental data reported in patent US5506217A, “Phosphonates as anti-cancer agents” (The University of British Columbia, priority 1994, dated 1996).

Key:
[1] = system: LLC tumor cells (Lewis Lung carcinoma); experiment: colonogenic cell survival assay; assay type: cell-based; conditions: Mus musculus, 120 h, read-out: Colonies formed after 5 days (% of control)
Experimental: (§1) Inhibition of colony formation in soft agar medium (colonogenic cell survival assay) is a more rigorous and direct measurement of cell kill or growth inhibition, and reflects the anti-cancer activity of the test compound. Briefly, tumor cells were cultured in petri dishes in methylcellulose, with or without a phosphonate test compound, and the number of colonies formed during a 5-day incubation period were counted.
Lewis Lung carcinoma (LLC), a cancer cell linc derived from […] of mice, was evaluated for its sensitivity to the cytotoxic activity of phosphonates of the following structure using the colonogenic cell survival assay (described above): [drawing 19]

[2] = system: HT-29 (human colorectal cancer); experiment: colonogenic cell survival assay; assay type: cell-based; conditions: 120 h, read-out: Colonies formed (% of control)
Experimental: as §1
(§2) The anti-cancer activity of the phosphonate compound of the formula shown above (compound VIII) was examined in human melanoma and colorectal tumor cell lines using the colonogenic cell survival assay (described above). RPMI-7951 (human melanoma) and HT-29 (human colorectal cancer) tumor cell lines were evaluated for their sensitivity to the cytotoxic activity of the above phosphonate (compound VIII).

[3] = system: RPMI-7951 (human melanoma); experiment: colonogenic cell survival assay; assay type: cell-based; conditions: 120 h, read-out: Colonies formed (% of control)
Experimental: as §1, §2

[4] = system: L1210 (B-cell lymphoma) cells; experiment: survival of CD1 mice injected with L1210 lymphoma cells; assay type: in vivo; conditions: 10 mg/kg per day IM
Experimental: The effects of phosphonates in a mouse model of lymphoma were also studied. Mice (CD 1) were injected with 1×10^6 L1210 (B-cell lymphoma) cells intraperitoneally. In one group the mice received the phosphonate compound of the following formula at 10 mg/kg per day intramuscularly, while a second group of mice received no treatment: [drawing 18]

[5] = system: human colorectal cell line (HT-29); experiment: HT-29 tumor growth in nude mice; assay type: in vivo; conditions: orally once a day, 5 mg/Kg body weight; HT-29 subcutaneous in nude mice
Experimental: Studies were also performed with nude mice injected with the human colorectal cell line (HT-29) subcutaneously.

B-16/F10 melanoma cells = experiment: B-16/F10 melanoma metastasis in C57BL/6 mice; assay type: in vivo; conditions: 10 mg/kg IM (5 days/week for 2 weeks)
Experimental: (§3) Highly metastatic B-16/F10 melanoma cells were injected into the tail veins of female C57BL/6 mice (1×10^5 cells per mouse). Treatment of one group of mice with the phosphonate compound of the above formula (compound VIII), dissolved into 0.5mL ethanol, 0.5 mL cremaphor and 9.0 mL phosphate buffered saline, began three days after the tumor cells were injected. lntramuscular injections of 0.2 mL of the phosphonate emulsion (10 mg/kg/day) were given for 5 days per week for 2 weeks. A second group of mice were treated with Adriamycin (10 mg/kg given intravenously on days 0, 4 and 8) as a known anti-cancer drug control group, while a third group of mice received the vehicle emulsion alone. The mice were examined every day for general health, behaviour and body weight. Counts of metastatic melanomic tumor colonies found in the lungs, general observations of metastasis to distant organs and examination of organs (liver, kidneys, lungs and spleen) were taken at autopsy 4 weeks after treatment.

[6] = body weight and general toxicity in the B-16/F10 melanoma study; assay type: in vivo, C57BL/6 mice; conditions: for Body weight (grams): 10 mg/kg IM (5 days/week for 2 weeks)
Experimental: as §3

[7] = system: 2008 (human ovarian cancer); experiment: cytotoxicity IC50 (3H-thymidine uptake, colonogenic cell survival and MTT assays); assay type: cell-based
Excerpt: (§4) A combination of ^3 H-Thymidine incorporation assay, colonogenic cell survival assay and MTT assay was used to determine cytotoxicity data of phosphonates in several mouse and human tumor cell lines.

[8] = system: HCT-116 (human rectal cancer); experiment: as above; assay type: cell-based
Excerpt: as §4

[9] = system: HT29 (human colon cancer); experiment: as above; assay type: cell-based; conditions: HT-29
Excerpt: as §4

[10] = system: L1210 (mouse B-cell lymphoma); experiment: as above; assay type: cell-based
Excerpt: as §4

[11] = system: LLC (mouse Lewis lung carcinoma); experiment: as above; assay type: cell-based
Excerpt: as §4

[12] = system: MCF-7 (human breast cancer); experiment: as above; assay type: cell-based; conditions: MCF7
Excerpt: as §4

[13] = system: MeWo (human melanoma cancer); experiment: as above; assay type: cell-based
Excerpt: as §4

[14] = system: P388 (mouse monocytic leukemia); experiment: as above; assay type: cell-based
Excerpt: as §4

[15] = system: P388 DR (drug resistant P388); experiment: as above; assay type: cell-based; conditions: Mus musculus
Excerpt: as §4

[16] = system: RPMI (advanced human melanoma); experiment: as above; assay type: cell-based
Excerpt: as §4

[17] = system: WEHI-3B (mouse granulocytic leukemia); experiment: as above; assay type: cell-based; conditions: WEHI3B
Excerpt: as §4

CCCCCCCCCCCCCCCCOCC(CCP(=O)([O-])OCC[N+](C)(C)C)OC (stereo not drawn) [compound VIII]
activity at 1.25 µM ([1]; 1.25 μM): 97 ± 9% | activity at 2.5 µM ([1]; 2.5 μM): 81 ± 6% | activity at 5 µM ([1]; 5 μM): 67 ± 5% | activity at 10 µM ([1]; 10 μM): 53 ± 4% | activity at 20 µM ([1]; 20 μM): 37 ± 5% | activity at 40 µM ([1]; 40 μM): 19 ± 6% | activity at 2.5 µM ([2]; 2.5 μM): 74% | activity at 5 µM ([2]; 5 μM): 51% | activity at 10 µM ([2]; 10 μM): 22% | activity at 20 µM ([2]; 20 μM): 8% | activity at 40 µM ([2]; 40 μM): 0% | activity at 2.5 µM ([3]; 2.5 μM): 68% | activity at 5 µM ([3]; 5 μM): 43% | activity at 10 µM ([3]; 10 μM): 13% | activity at 20 µM ([3]; 20 μM): 3% | activity at 40 µM ([3]; 40 μM): 0% | % Survival ([4]; day 0 after injection of L1210 cells): 100% | % Survival ([4]; day 7 after injection of L1210 cells): 100% | % Survival ([4]; day 8 after injection of L1210 cells): 100% | % Survival ([4]; day 19 after injection of L1210 cells): 100% | % Survival ([4]; day 21 after injection of L1210 cells): 100% | deaths among treated animals (in words) ([4]; up to 21 days of observation): None of the phosphonate-treated (compound VIII) animals died | retardation of tumor growth [5]: 30-40% | melanomic metastasis to distant organs at autopsy (in words) (B-16/F10 melanoma cells): no traces of melanomic metastasis to distant organs were evident in five of six animals | Melanomic tumor colonies found in the lungs at autopsy (B-16/F10 melanoma cells; Mouse 1): 2 | Melanomic tumor colonies found in the lungs at autopsy (B-16/F10 melanoma cells; Mouse 2): 0 | Melanomic tumor colonies found in the lungs at autopsy (B-16/F10 melanoma cells; Mouse 3): 1 | Melanomic tumor colonies found in the lungs at autopsy (B-16/F10 melanoma cells; Mouse 4): 0 | Melanomic tumor colonies found in the lungs at autopsy (B-16/F10 melanoma cells; Mouse 5): 0 | Melanomic tumor colonies found in the lungs at autopsy (B-16/F10 melanoma cells; Mouse 6): 3 | Body weight (grams) ([6]; Mouse 1, day 0): 19 grams | Body weight (grams) ([6]; Mouse 1, day 12): 20 grams | Body weight (grams) ([6]; Mouse 1, day 26): 23 grams | Body weight (grams) ([6]; Mouse 2, day 0): 19 grams | Body weight (grams) ([6]; Mouse 2, day 12): 20 grams | Body weight (grams) ([6]; Mouse 2, day 26): 22 grams | Body weight (grams) ([6]; Mouse 3, day 0): 19 grams | Body weight (grams) ([6]; Mouse 3, day 12): 21 grams | Body weight (grams) ([6]; Mouse 3, day 26): 24 grams | Body weight (grams) ([6]; Mouse 4, day 0): 20 grams | Body weight (grams) ([6]; Mouse 4, day 12): 21 grams | Body weight (grams) ([6]; Mouse 4, day 26): 25 grams | Body weight (grams) ([6]; Mouse 5, day 0): 19 grams | Body weight (grams) ([6]; Mouse 5, day 12): 21 grams | Body weight (grams) ([6]; Mouse 5, day 26): 24 grams | Body weight (grams) ([6]; Mouse 6, day 0): 20 grams | Body weight (grams) ([6]; Mouse 6, day 12): 21 grams | Body weight (grams) ([6]; Mouse 6, day 26): 24 grams | toxicity (weight, behaviour and appearance of the mice; in words) ([6]; intramuscularly, 10 mg/kg for 2 weeks): not toxic | IC50 [7]: 27.8 µM | IC50 [8]: 12 µM | IC50 [9]: 9 µM | IC50 [10]: 5 µM | IC50 [11]: 10.6 µM | IC50 [12]: 35.3 µM | IC50 [13]: 15.7 µM | IC50 [14]: 4.5 µM | IC50 [15]: 5 µM | IC50 [16]: 9 µM | IC50 [17]: 2.5 µM
